Measurements from patent publication US20230167084A1, “TETRAHYDROISOQUINOLINE COMPOUNDS AS NRF2 ACTIVATORS” (C4X Discovery Limited, priority 2020, published 2023).

Key:
[1] = molecular target: T1, human KEAP1 (N-term, residues 321-609) (Homo sapiens, UniProt Q14145); test: KEAP1 Kelch Fluorescence Polarization (FP) Assay; assay type: binding; settings: inhibition of Kelch domain-NRF2 interaction; 2 nM FITC-labelled NRF2 peptide, 25 nM KEAP1, 1 h at room temperature; compounds below 10 nM cannot be differentiated
T1 construct: human KEAP1 (N-term, residues 321-609) enzyme
T1 sequence (Q14145 321-609): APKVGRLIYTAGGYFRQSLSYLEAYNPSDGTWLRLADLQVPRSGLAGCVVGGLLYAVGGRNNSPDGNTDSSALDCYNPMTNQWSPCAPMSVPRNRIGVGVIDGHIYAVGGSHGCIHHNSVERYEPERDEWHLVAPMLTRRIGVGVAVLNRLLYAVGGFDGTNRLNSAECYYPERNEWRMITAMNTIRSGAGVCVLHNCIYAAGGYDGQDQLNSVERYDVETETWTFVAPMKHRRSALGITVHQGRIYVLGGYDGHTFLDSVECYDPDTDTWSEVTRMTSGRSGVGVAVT
Description: Inhibition of the Kelch domain-NRF2 interaction was determined using a fluorescence polarization-based competition assay in a black 384-well microplate. Compounds were tested at a starting concentration of 10 μM serially diluted 1:3 to generate a 12-point dose response curve on the Biomek FX robot. Each well contained 2 nM FITC-labelled NRF2 peptide (FITC-LDEETGEFL-NH2) and 25 nM human KEAP1 (N-term, residues 321-609) enzyme in a final volume of 20 μL of assay buffer (50 mM Tris-HCl pH 8.0, 100 mM NaCl, 5 mM MgCl2, 0.005% Tween-20, 0.005% BSA, 0.5% DMSO) in the presence of varying concentrations of test compound. Unlabelled peptide (LDEETGEFL-NH2) at 50 μM (negative control) and 0.5% DMSO (positive control) was used to determine the assay window.
After 1 h at room temperature, fluorescence polarization (excitation 470 nm/emission 530 nm) was measured using an Envision plate reader. IC50 values were determined by fitting the data to a four parameter logistic fit using XLfit or XE Runner within ActivityBase. The assay limit is such that compounds below 10 nM cannot be differentiated.

[2] = tested on: NRF2 mediated gene NAD(P)H:quinone acceptor oxidoreductase 1 (NQO1) in BEAS-2B cells; test: Beas2B NQO1 mRNA Cell Based Assay; settings: Homo sapiens, NQO1 mRNA increase compared to vehicle (0.1% DMSO), 24 h
Description: The up regulation of the NRF2 mediated gene NAD(P)H:quinone acceptor oxidoreductase 1 (NQO1) was measured using the following assay method: BEAS-2B cells (ATCC CRL-9609) were plated in 96-well clear plates at 20,000 cells/well in 75 μL of cell culture media and incubated overnight (37° C., 5% CO2). On day 2, 25 μL of compound or controls were added to the cells for 24 h. On day 3, the medium was aspirated from the plate and the Cells-to-CT™ 1-Step TaqMan® Kit (Ambion A25603) was used to perform expression analysis directly from cultured cells without RNA purification according to the manufacturer's instructions.
Briefly, cells were washed with ice cold PBS and 22.5 μL of room-temperature DNase/Lysis solution was added to the cells and incubated at room temperature for 5 minutes. To stop the reaction, 2.25 μL of stop solution was added to the cell lysate. The samples were diluted 1:5 using nuclease free water and 2.5 μL transferred into the PCR plate. Real-time PCR was performed using the C-1000 Thermal Cycler (Bio-Rad) using human beta actin as the internal control. The cDNA was amplified with a specific primer for NQO1 using the 1-step RT-PCR master mix (Ambion Cells-to-CT™ 1-Step TaqMan® Kit A25603). The primers/probes sets that were used for amplification of cDNA were obtained from TaqMan Gene Expression Assays (Applied Biosystems). The comparative CT (ΔΔCT) relative quantification method was used to calculate the relative mRNA level of the target gene NQO1 as described in the Applied Biosystems Chemistry Guide. The data are expressed as an increase in target gene mRNA compared to vehicle (0.1% DMSO) control and the EC50 values were determined by fitting the data to a four parameter logistic fit using XLfit or XE Runner within ActivityBase.

Structure (SMILES)	IC50 [1] [nM]	EC50 [2] [nM]
Cn1nnc(COc2c(F)cc(Cl)c3c2[C@@H](CN2CC4(CC4)CC2=O)N(C(=O)[C@@H]2CCCC[C@]2(C)c2nnn[nH]2)CC3)c1C(F)F [Example 1, 5-(((S)-5-chloro-8-((5-(difluoromethyl)-1-methyl-1H-1,2,3-triazol-4-yl)methoxy)-7-fluoro-2-((1R,2S)-2-methyl-2-(1H-tetrazol-5-yl)cyclohexane-1-carbonyl)-1,2,3,4-tetrahydroisoquinolin-1-yl)methyl)-5-azaspiro[2.4]heptan-6-one]	4.8	6.8
Cn1nnc(COc2c(F)cc(Cl)c3c2[C@@H](CN2CCOCC2=O)N(C(=O)[C@@H]2CCCC[C@]2(C)C(=O)O)CC3)c1C(F)F [Example 2, (1S,2R)-2-((S)-5-chloro-8-((5-(difluoromethyl)-1-methyl-1H-1,2,3-triazol-4-yl)methoxy)-7-fluoro-1-((3-oxomorpholino)methyl)-1,2,3,4-tetrahydroisoquinoline-2-carbonyl)-1-methylcyclohexane-1-carboxylic acid]	5.4	1.3
C[C@@H]1CC(=O)N(C[C@@H]2c3c(c(Cl)cc(F)c3OCc3nnn(C)c3C(F)F)CCN2C(=O)[C@@H]2CCCC[C@]2(C)C(=O)O)C1 [Example 3, (1S,2R)-2-((S)-5-chloro-8-((5-(difluoromethyl)-1-methyl-1H-1,2,3-triazol-4-yl)methoxy)-7-fluoro-1-(((R)-4-methyl-2-oxopyrrolidin-1-yl)methyl)-1,2,3,4-tetrahydroisoquinoline-2-carbonyl)-1-methylcyclohexane-1-carboxylic acid]	4.4	2.1

Continued, in another order:

IC50 [1] [nM]	Structure (SMILES)	EC50 [2] [nM]
5	C[C@]1(C(=O)O)CCC[C@H]1C(=O)N1CCc2c(Cl)cc(F)c(OCc3nnn4c3CCCC4)c2[C@H]1CN1CC2(CC2)CC1=O [Example 4, (1S,2R)-2-((S)-5-chloro-7-fluoro-1-((6-oxo-5-azaspiro[2.4]heptan-5-yl)methyl)-8-((4,5,6,7-tetrahydro-[1,2,3]triazolo[1,5-a]pyridin-3-yl)methoxy)-1,2,3,4-tetrahydroisoquinoline-2-carbonyl)-1-methylcyclopentane-1-carboxylic acid]	0.3
4.9	Cc1nnc(COc2c(F)cc(Cl)c3c2[C@@H](CN2CC4(CC4)CC2=O)N(C(=O)[C@@H]2CCCC[C@]2(C)C(=O)O)CC3)n1C [Example 5, (1S,2R)-2-((S)-5-chloro-8-((4,5-dimethyl-4H-1,2,4-triazol-3-yl)methoxy)-7-fluoro-1-((6-oxo-5-azaspiro[2.4]heptan-5-yl)methyl)-1,2,3,4-tetrahydroisoquinoline-2-carbonyl)-1-methylcyclohexane-1-carboxylic acid]	0.5
5	Cn1cc(COc2c(F)cc(Cl)c3c2[C@@H](CN2CC4(CC4)CC2=O)N(C(=O)[C@@H]2CCCC[C@]2(C)C(=O)O)CC3)nn1 [Example 6, (1S,2R)-2-((S)-5-chloro-7-fluoro-8-((1-methyl-1H-1,2,3-triazol-4-yl)methoxy)-1-((6-oxo-5-azaspiro[2.4]heptan-5-yl)methyl)-1,2,3,4-tetrahydroisoquinoline-2-carbonyl)-1-methylcyclohexane-1-carboxylic acid]	1
